Experimental data as given in US20250296959A1, “B7-H3 TARGETING PEPTIDES AND CONSTRUCTS THEREOF” (Mariana Oncology Inc., priority 2024, published 2025).
Where two headings read alike, the source gives them in different places. Starred links: 1 amine or outer side, 2 acyl side, 3 side chain; linkers in the order of their positions; H or OH if unused. Positions of bridges follow the written chain, without caps; N, C: chain ends. Non-standard residues stand in square brackets, D forms with d. Residues, ends and D or L forms follow the SMILES beside them. Groups on a side chain read outwards from the residue. *: point of attachment. Ala(1-CH2CO2H-4-piperidyl) = N[C@@H](CC1CCN(CC(=O)O)CC1)C(=O)O; Ala(piperidin-4-yl) = O=C([C@H](CC1CCN([*:3])CC1)N[*:1])[*:2]; DOTA = O=C(O)CN1CCN(CC(=O)O)CCN(CC(=O)*)CCN(CC(=O)O)CC1; Trp(5-F) = N[C@@H](Cc1c[nH]c2ccc(F)cc12)C(=O)O; X1 = C[C@@H](c1ccccc1)[C@H](N[*:1])C(=O)[*:2]; X17 = CN1CCC(C[C@H](N[*:1])C(=O)[*:2])CC1; Lys(Me3) = C[N+](C)(C)CCCC[C@H](N)C(=O)O; 1Nal = N[C@@H](Cc1cccc2ccccc12)C(=O)O; Ala(4-THP) = N[C@@H](CC1CCOCC1)C(=O)O; Val(3-OH) = CC(C)(O)[C@H](N)C(=O)O; Cya = N[C@@H](CS(=O)(=O)O)C(=O)O; Aad = N[C@@H](CCCC(=O)O)C(=O)O; PEG4 = NCCOCCOCCOCCOCCC(=O)O; Tle = CC(C)(C)[C@H](N)C(=O)O; hLeu = CC(C)CC[C@H](N)C(=O)O; Nle = CCCC[C@H](N)C(=O)O; Dab = NCC[C@H](N)C(=O)O; Ms = CS(=O)(=O)*

How the values were obtained:
human 4lg B7-H3 = molecular target: T1, human 4lg B7-H3 (Homo sapiens, UniProt Q5ZPR3); assay: Affinity determination by surface plasmon resonance (SPR) to 4Ig B7-H3; settings: 4Ig B7-H3
T1 sequence (Q5ZPR3 29-534): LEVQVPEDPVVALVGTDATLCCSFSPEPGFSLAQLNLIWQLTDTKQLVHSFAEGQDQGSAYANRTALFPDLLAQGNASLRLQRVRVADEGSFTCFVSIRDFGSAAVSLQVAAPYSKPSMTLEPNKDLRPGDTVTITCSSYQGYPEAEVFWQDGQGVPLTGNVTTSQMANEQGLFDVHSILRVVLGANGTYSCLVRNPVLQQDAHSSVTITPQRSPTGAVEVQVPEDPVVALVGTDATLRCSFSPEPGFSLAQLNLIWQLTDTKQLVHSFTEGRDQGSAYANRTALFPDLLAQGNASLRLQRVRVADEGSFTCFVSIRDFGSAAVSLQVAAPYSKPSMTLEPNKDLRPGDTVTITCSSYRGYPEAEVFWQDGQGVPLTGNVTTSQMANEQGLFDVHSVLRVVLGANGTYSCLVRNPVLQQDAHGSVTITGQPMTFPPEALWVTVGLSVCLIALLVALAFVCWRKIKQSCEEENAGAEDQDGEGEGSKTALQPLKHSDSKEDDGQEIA

Calu-6 cell line [1] = assay: Cell associated (bound) fraction of [177Lu]Lu-labeled peptide in Calu-6 cells; assay type: cell-based, Human; settings: 1 hour, 37° C.
Method: (§1) [^177Lu]LuCl3 was received from venders in HCl solution. For every mCi of [^177Lu]LuCl3 added to the reaction vial (1.5 mL Eppendorf vial), ammonium acetate buffer (0.2 M, pH 4.9, 100 μL, containing 1% w/v ascorbic acid and 6% v/v ethanol) and peptide conjugate (1 nmol) was added. The pH of the solution was determined to be approximately 5 by using pH strips. The reaction vial was incubated at 80° C., 700 RPM for 17-20 minutes. A sample from the reaction was analyzed by RP-HPLC using an Agilent Infinity II 1260 HPLC to determine reaction completion and radiochemical purity. HPLC conditions: Waters XBridge BEH C18 Column, 130 Å, 3.5 μm, 4.6 mm×250 mm; mobile phase: Solvent A=water (with 0.1% formic acid), solvent B=acetonitrile (with 0.1% formic acid). Gradients: 25-45% B in 10 minutes, 45-65% B in 12 minutes, 65-90% in 6 minutes at a flow rate of 0.5 mL/minute. Required amounts of the product were formulated in 1% PBSA for cell studies.
(§2) The study was conducted using Calu-6 cell line (Table 8)
(§3) Adherent cell studies: The cells were cultured in appropriate culture media (20 mL) in tissue culture treated T150 flasks at 37° C. and 5% CO2. Adherent cells were detached (60-70% confluent) using 5 mL Versene at 37° C. for 3 minutes. After confirming the viability using countess and count of detached cells using Trypan blue, the cells were centrifuged at 4° C. for 5 minutes (1,000 revolutions per minute). The cell pellet obtained was washed once with PBS and resuspended in 1% PBSA to obtain the desired cell concentration (5 million cells/mL).
Cell associated fraction: Cells were incubated with 300 μL (0.8 μCi) of the incubation buffer (containing radiolabeled peptide [^177Lu]Lu-test peptide) for 1 hour at 37 C (Table 9). Post incubation, the cells were pelleted and washed 2 times using cold PBS+1% BSA. The supernatant and washes were combined and counted together as “unbound fraction” in a gamma counter. The cells were then resuspended in 300 μL of 1% PBS+1% BSA and counted in the gamma counter as cell associated fraction (or bound fraction).
(§4) Calu-6 Cells are Human-Derived, Non-Engineered Lung Cancer Cell that Express B7-H3.

Calu-6 cell line [2] = assay: Net internalization of [177Lu]Lu-labeled peptide in Calu-6 cells; assay type: cell-based, Human; settings: 1 hour, 37° C., glycine pH 2.5 acid wash
Method: as §1, §2, §3
Net internalization: The resuspended cells in 300 μl of 1% PBSA and counted in the gamma counter as “bound fraction” were collected in 1.5 mL Eppendorf tube and pelleted. The pelleted cells were incubated with 300 μl of 50 mM Glycine pH=2.5 for 3 minutes and then pelleted discarding the supernatant. This process was repeated one more time. The pelleted cells were washed with 300 μl of cold 1% PBSA and then resuspended in 300 μl 0.3 M NaOH. This was counted in the gamma counter as “internalized fraction”.
as §4

[3] = SPR KD—37° C., 37° C. flow cell temperature

## CC(C)CC[C@H](NS(C)(=O)=O)C(=O)N[C@@H](Cc1ccc(O)cc1)C(=O)N[C@H]1CSSC[C@@H](C(=O)N[C@@H](Cc2c[nH]c3ccc(F)cc23)C(=O)N[C@@H](Cc2ccccc2)C(=O)N[C@H](C(=O)N[C@H](CCCCNC(=O)CN2CCN(CC(=O)O)CCN(CC(=O)O)CCN(CC(=O)O)CC2)C(=O)O)C(C)(C)O)NC(=O)[C@H](Cc2ccc(O)cc2)NC(=O)[C@H](C(C)C)NC(=O)[C@H](CC(=O)O)NC(=O)[C@H](CC2CCOCC2)NC(=O)[C@H](CC2CCNCC2)NC(=O)CNC(=O)[C@H](C(C)(C)C)NC1=O [Cpd #437, MeSO2-hLeu-Y-C-Tbg-G-PipAla-ThpA-D-V-Y-C-5FW-F-hydroxyVal-dLys(DOTA)-COOH] (Ms-[hLeu]YC[Tle]G[Ala(piperidin-4-yl)][Ala(4-THP)]DVYC[Trp(5-F)]F[Val(3-OH)][dK](DOTA)-OH; disulfide 3-11)
Human 4lg B7-H3; read-out: SPR KD—37° C., 37° C. flow cell temperature
  Kd: < 1 nM
Calu-6 cell line [1]
  % cell associated fraction: B (25<%≤50)
Calu-6 cell line [2]
  % net internalization: A (%≤25)

## CC(=O)N[C@@H](CCC(C)C)C(=O)N[C@@H](Cc1ccc(O)cc1)C(=O)N[C@H]1CSSC[C@@H](C(=O)N[C@@H](Cc2cccc3ccccc23)C(=O)N[C@H](C(=O)N[C@H](C(=O)N[C@H](CCCCNC(=O)CN2CCN(CC(=O)O)CCN(CC(=O)O)CCN(CC(=O)O)CC2)C(=O)O)C(C)(C)O)[C@@H](C)c2ccccc2)NC(=O)[C@H](Cc2ccc(O)cc2)NC(=O)[C@H](C(C)C)NC(=O)[C@H](CC(=O)O)NC(=O)[C@H](CC2CCOCC2)NC(=O)[C@H](CC2CCNCC2)NC(=O)CNC(=O)[C@H](C(C)(C)C)NC1=O [compound 516, Ac-hLeu-Y-C-Tbg-G-PipAla-ThpA-D-V-Y-C-1Nal-[(2S, 3S)beta-Me-Phe]-hydroxyVal-dLys(DOTA)-COOH] (Ac-[hLeu]YC[Tle]G[Ala(piperidin-4-yl)][Ala(4-THP)]DVYC[1Nal][X1][Val(3-OH)][dK](DOTA)-OH; disulfide 3-11)
Human 4lg B7-H3; [3]
  Kd: < 1 nM

## CC(=O)N[C@@H](CCC(C)C)C(=O)N[C@@H](Cc1ccc(O)cc1)C(=O)N[C@H]1CSSC[C@@H](C(=O)N[C@@H](Cc2c[nH]c3ccc(F)cc23)C(=O)N[C@H](C(=O)N[C@H](C(=O)N[C@H](C)C(=O)O)C(C)(C)O)[C@@H](C)c2ccccc2)NC(=O)[C@H](Cc2ccc(O)cc2)NC(=O)[C@H](C(C)C)NC(=O)[C@H](CC(=O)O)NC(=O)[C@H](CC2CCN(C(=O)CCOCCOCCOCCOCCNC(=O)CN3CCN(CC(=O)O)CCN(CC(=O)O)CCN(CC(=O)O)CC3)CC2)NC(=O)[C@H](CC2CCN(C)CC2)NC(=O)CNC(=O)[C@H](C(C)(C)C)NC1=O [compound 520, Ac-hLeu-Y-C-Tbg-G-Pip(Me)Ala-Pip(PEG4-DOTA)Ala-D-V-Y-C-5FW-[(2S, 3S)beta-Me-Phe]-hydroxyVal-dAla-COOH] (Ac-[hLeu]YC[Tle]G[X17][Ala(piperidin-4-yl)]([PEG4-DOTA])DVYC[Trp(5-F)][X1][Val(3-OH)][dA]-OH; disulfide 3-11)
Human 4lg B7-H3; [3]
  Kd: < 1 nM

## CC(=O)N[C@@H](CCC(C)C)C(=O)N[C@@H](Cc1ccc(O)cc1)C(=O)N[C@H]1CSSC[C@@H](C(=O)N[C@@H](Cc2c[nH]c3ccc(F)cc23)C(=O)N[C@H](C(=O)N[C@H](C(=O)N[C@H](C)C(=O)O)C(C)(C)O)[C@@H](C)c2ccccc2)NC(=O)[C@H](Cc2ccc(O)cc2)NC(=O)[C@H](C(C)C)NC(=O)[C@H](CC(=O)O)NC(=O)[C@H](CC2CCN(C(=O)CCOCCOCCOCCOCCNC(=O)CN3CCN(CC(=O)O)CCN(CC(=O)O)CCN(CC(=O)O)CC3)CC2)NC(=O)[C@H](CCCC[N+](C)(C)C)NC(=O)CNC(=O)[C@H](C(C)(C)C)NC1=O [compound 522, Ac-hLeu-Y-C-Tbg-G-Lys(Me)3-Pip(PEG4-DOTA)Ala-D-V-Y-C-5FW-[(2S, 3S)beta-Me-Phe]-hydroxyVal-dAla-COOH] (Ac-[hLeu]YC[Tle]G[Lys(Me3)][Ala(piperidin-4-yl)]([PEG4-DOTA])DVYC[Trp(5-F)][X1][Val(3-OH)][dA]-OH; disulfide 3-11)
Human 4lg B7-H3; [3]
  Kd: < 1 nM

## CC(=O)N[C@@H](CCC(C)C)C(=O)N[C@@H](Cc1ccc(O)cc1)C(=O)N[C@H]1CSSC[C@@H](C(=O)N[C@@H](Cc2c[nH]c3ccc(F)cc23)C(=O)N[C@H](C(=O)N[C@H](C(=O)N[C@H](CCCCNC(=O)CN2CCN(CC(=O)O)CCN(CC(=O)O)CCN(CC(=O)O)CC2)C(=O)O)C(C)(C)O)[C@@H](C)c2ccccc2)NC(=O)[C@H](Cc2ccc(O)cc2)NC(=O)[C@H](C(C)C)NC(=O)[C@H](CS(=O)(=O)O)NC(=O)[C@H](CC2CCOCC2)NC(=O)[C@H](CC2CCNCC2)NC(=O)CNC(=O)[C@H](C(C)(C)C)NC1=O [compound 524, Ac-hLeu-Y-C-Tbg-G-PipAla-ThpA-CysAcid-V-Y-C-5FW-[(2S, 3S)beta-Me-Phe]-hydroxyVal-dLys(DOTA)-COOH] (Ac-[hLeu]YC[Tle]G[Ala(piperidin-4-yl)][Ala(4-THP)][Cya]VYC[Trp(5-F)][X1][Val(3-OH)][dK](DOTA)-OH; disulfide 3-11)
Human 4lg B7-H3; [3]
  Kd: < 1 nM

## CC(=O)N[C@@H](CCC(C)C)C(=O)N[C@@H](Cc1ccc(O)cc1)C(=O)N[C@H]1CSSC[C@@H](C(=O)N[C@@H](Cc2c[nH]c3ccc(F)cc23)C(=O)N[C@H](C(=O)N[C@H](C(=O)N[C@H](CCCCNC(=O)[C@H](CCCC(=O)O)NC(=O)CN2CCN(CC(=O)O)CCN(CC(=O)O)CCN(CC(=O)O)CC2)C(=O)O)C(C)(C)O)[C@@H](C)c2ccccc2)NC(=O)[C@H](Cc2ccc(O)cc2)NC(=O)[C@H](C(C)C)NC(=O)[C@H](CC(=O)O)NC(=O)[C@H](CC2CCOCC2)NC(=O)[C@H](CC2CCN(CC(=O)O)CC2)NC(=O)CNC(=O)[C@H](C(C)(C)C)NC1=O [compound 525, Ac-hLeu-Y-C-Tbg-G-Pip(CH2COOH)Ala-ThpA-D-V-Y-C-5FW-[(2S, 3S)beta-Me-Phe]-hydroxyVal-dLys(hGlu-DOTA)-COOH] (Ac-[hLeu]YC[Tle]G[Ala(1-CH2CO2H-4-piperidyl)][Ala(4-THP)]DVYC[Trp(5-F)][X1][Val(3-OH)][dK]([Aad-DOTA])-OH; disulfide 3-11)
Human 4lg B7-H3; [3]
  Kd: < 1 nM

## CCCC[C@H](NC(C)=O)C(=O)N[C@@H](Cc1ccc(O)cc1)C(=O)N[C@H]1CSSC[C@@H](C(=O)N[C@@H](Cc2c[nH]c3ccccc23)C(=O)N[C@@H](Cc2ccccc2)C(=O)N[C@H](C(=O)N[C@H](CCCCNC(=O)CN2CCN(CC(=O)O)CCN(CC(=O)O)CCN(CC(=O)O)CC2)C(N)=O)[C@@H](C)O)NC(=O)[C@H](Cc2ccc(O)cc2)NC(=O)[C@H](C(C)C)NC(=O)[C@H](CCN)NC(=O)[C@H](Cc2ccc(O)cc2)NC(=O)[C@H](CCCCN)NC(=O)CNC(=O)[C@H](C(C)C)NC1=O [compound 552, Ac-Nle-Y-C-V-G-K-Y-Dab-V-Y-C-W-F-Thr-dLys(DOTA)-CONH2] (Ac-[Nle]YCVGKY[Dab]VYCWFT[dK](DOTA)-NH2; disulfide 3-11)
Human 4lg B7-H3; SPR KD—25° C., 25° C. flow cell temperature
  Kd: 10 to 100 nM

## Ac-hLeu-Y-C-Tbg-G-Pip(PEG4-DOTA)Ala-ThpA-D-V-Y-C-5FW-[(2S, 3S)beta-Me-Phe]-hydroxyVal-dAla-COOH [compound 494]
Calu-6 cell line [1]
  % cell associated fraction: C (%>50)
Calu-6 cell line [2]
  % net internalization: B (25<%≤50)
